Assay results published in patent publication US6559164B1, “Substituted pyrroles suitable for continuous infusion” (Hoffmann-La Roche Inc., priority 1999, dated 2003).
Structures can show the parent of a compound that is named as a salt.

How the values were obtained:
[1] = Plasma conversion (degradation in plasma to the active metabolite); assay type: in vitro ADME; conditions: human or rodent plasma at 37° C., percent degradation
Experimental: “Plasma conversion” with respect to compounds of formula I means the degradation (enzymatic and/or non-enzymatic) of such compound in human or rodent plasma at 37° C. from 30 minutes to 6 hours to give 3-(1-methyl-3-indolyl)-4-(1-methyl-6-nitro-3-indolyl)-1H-pyrrole-2,5-dione, a pharmaceutically active metabolite of compounds of formula I, as well as pharmaceutically active metabolites thereof. This conversion is typically given as the percent degradation over a specified time frame.

[2] = Stability in solution for intravenous administration (release of 3-(1-methyl-3-indolyl)-4-(1-methyl-6-nitro-3-indolyl)-1H-pyrrole-2,5-dione); assay type: physicochemical; conditions: 72 hours at room temperature in a mixture of acetonitrile and saline or dextrose water; parent pyrrole-2,5-dione detected
Experimental: “Stability” is an overall assessment of the ability of a compound of formula I to withstand degradation in a typical solution used for the administration of drugs intravenously. Specifically, it refers to the ability of any given compound of formula I to release 3-(1-methyl-3-indolyl)-4-(1-methyl-6-nitro-3-indolyl)-1H-pyrrole-2,5-dione, over a 72 hour period in a mixture of acetonitrile and saline or dextrose water. The
“stability” of a compound of formula I is “very good” if the less than 1% 3-(1-Methyl-3-indolyl)-4-(1-methyl-6-nitro-3-indolyl)-1H-pyrrole-2,5-dione is detected, “good” if less than 2.5% 3-(1-Methyl-3-indolyl)-4-(1-methyl-6-nitro-3-indolyl)-1H-pyrrole-2,5-dione is detected, and “fair” if less than 5% 3-(1-Methyl-3-indolyl)-4-(1-methyl-6-nitro-3-indolyl)-1H-pyrrole-2,5-dione is detected after 72 hours incubation at room temperature.

Plasma Conversion ([1]; @ 30 min) | Stability [2] | Compound | other results
70% @ 30 min | Good | Cn1cc(C2=C(c3cn(C)c4cc([N+](=O)[O-])ccc34)C(=O)N(COC(=O)c3cccnc3)C2=O)c2ccccc21 [Example 3a, nicotinic acid 3-(1-methyl-1H-indol-3-yl)-4-(1-methyl-6-nitro-1H-indol-3-yl)-2,5-dioxo-2,5-dihydro-pyrrol-1-ylmethyl ester] | –
60% @ 30 min | Good | Cn1cc(C2=C(c3cn(C)c4cc([N+](=O)[O-])ccc34)C(=O)N(COC(=O)Cc3ccncc3)C2=O)c2ccccc21 [Example 3c, pyridin-4-yl acetic acid 3-(1-methyl-1H-indol-3-yl)-4-(1-methyl-6-nitro-1H-indol-3-yl)-2,5-dioxo-2,5-dihydro-pyrrol-1-ylmethyl ester] | –
70% @ 30 min | Good | Cn1cc(C2=C(c3cn(C)c4cc([N+](=O)[O-])ccc34)C(=O)N(COC(=O)Cc3cccnc3)C2=O)c2ccccc21 [Example 3d, pyridin-3-yl acetic acid 3-(1-methyl-1H-indol-3-yl)-4-(1-methyl-6-nitro-1H-indol-3-yl)-2,5-dioxo-2,5-dihydro-pyrrol-1-ylmethyl ester] | –
20% @ 30 min | Good | Cn1cc(C2=C(c3cn(C)c4cc([N+](=O)[O-])ccc34)C(=O)N(COC(=O)CCC(=O)O)C2=O)c2ccccc21 [Example 3f, succinic acid mono-[3-(1-methyl-1H-indol-3-yl)-4-(1-methyl-6-nitro-1H-indol-3-yl)-2,5-dioxo-2,5-dihydro-pyrrol-1-ylmethyl] ester] | –
– | Good | CCCCCCC=CCCCCCCCC(=O)OCN1C(=O)C(c2cn(C)c3ccccc23)=C(c2cn(C)c3cc([N+](=O)[O-])ccc23)C1=O [Example 3g, hexadec-9-enoic 3-(1-methyl-1H-indol-3-yl)-4-(1-methyl-6-nitro-1H-indol-3-yl)-2,5-dioxo-2,5-dihydro-pyrrol-1-ylmethyl ester] | –
– | Fair | Cn1cc(C2=C(c3cn(C)c4cc([N+](=O)[O-])ccc34)C(=O)N(COC(=O)COCCOCCOCCOCC(=O)O)C2=O)c2ccccc21 [Example 3h, [2-[2-(2-carboxymethoxy-ethoxy)-ethoxy]-ethoxy] acetic acid-3-(1-methyl-1H-indol-3-yl)-4-(1-methyl-6-nitro-1H-indol-3-yl)-2,5-dioxo-2,5-dihydro-pyrrol-1-ylmethyl ester] | –
30% @ 30 min | Good | Cn1cc(C2=C(c3cn(C)c4cc([N+](=O)[O-])ccc34)C(=O)N(COC(=O)C3CCNCC3)C2=O)c2ccccc21 [Example 8a, piperidine-4-carboxylic acid 3-(1-methyl-1H-indol-3-yl)-4-(1-methyl-6-nitro-1H-indol-3-yl)-2,5-dioxo-2,5-dihydro-pyrrol-1-ylmethyl ester trifluoroacetate] | –

The next lines start with the compound.

Compound | Plasma Conversion ([1]; @ 30 min) | Stability [2] | other results
Cn1cc(C2=C(c3cn(C)c4cc([N+](=O)[O-])ccc34)C(=O)N(CO)C2=O)c2ccccc21 | – | – | melting point: 209 to 211 °C
Cn1cc(C2=C(c3cn(C)c4cc([N+](=O)[O-])ccc34)C(=O)N(COC(=O)c3ccc[n+](C)c3)C2=O)c2ccccc21 [Example 12, 1-Methyl-3-[3-(1-methyl-1H-indol-3-yl)-4-(1-methyl-6-nitro-1H-indol-3-yl)-2,5-dioxo-2,5-dihydro-pyrrol-1-ylmethoxycarbonyl]-pyridinium; Trifluoroacetate] | 60% @ 30 min | Fair | –
Cn1cc(C2=C(c3cn(C)c4cc([N+](=O)[O-])ccc34)C(=O)N(COC(=O)c3ccc(OP(=O)(O)O)cc3)C2=O)c2ccccc21 [Example 14, 4-Phosphonooxy-benzoic Acid 3-(1-Methyl-1H-indol-3-yl)-4-(1-methyl-6-nitro-1H-indol-3-yl)-2,5-dioxo-2,5-dihydro-pyrrol-1-ylmethyl Ester Monosodium Salt] | – | Good | Plasma Conversion ([1]; @ 4 hrs): 5% @ 4 hrs
Cn1cc(C2=C(c3cn(C)c4cc([N+](=O)[O-])ccc34)C(=O)N(COC(=O)NCCOP(=O)(O)O)C2=O)c2ccccc21 [Example 20, (2-Phosphonooxy-ethyl)-carbamic Acid 3-(1-Methyl-1H-indol-3-yl)-4-(1-methyl-6-nitro-1H-indol-3-yl)-2,5-dioxo-2,5-dihydro-pyrrol-1-ylmethyl Ester] | – | Good | –
CCN(CC)CCNC(=O)N1C(=O)C(c2cn(C)c3ccccc23)=C(c2cn(C)c3cc([N+](=O)[O-])ccc23)C1=O [Example 21, 3-(1-Methyl-1H-indol-3-yl)-4-(1-methyl-6-nitro-1H-indol-3-yl)-2,5-dioxo-2,5-dihydro-pyrrole-1-carboxylic Acid (2-Diethylamino-ethyl)-amide] | – | Fair | Plasma Conversion ([1]; @ 1 hr): 100% @ 1 hr
Cn1cc(C2=C(c3cn(C)c4cc([N+](=O)[O-])ccc34)C(=O)N(C(=O)NCCCCOP(=O)([O-])[O-])C2=O)c2ccccc21.[Na+].[Na+] [Example 24, Phosphoric Acid Mono-(4-{[3-(1-methyl-1H-indol-3-yl)-4-(1-methyl-6-nitro-1H-indol-3-yl)-2,5-dioxo-2,5-dihydro-pyrrole-1-carbonyl]-amino}-butyl) Ester Sodium Salt] | – | Good | Plasma Conversion ([1]; @ 6 hrs): 10% @ 6 hrs
[[3-(1-Methyl-1H-indol-3-yl)-4-(1-methyl-6-nitro-1H-indol-3-yl)-2,5-dioxo-2,5-dihydro-pyrrol-1-yl]methoxycarbonyl]-4-phenyl-O-methylpolyethylene Glycol 500 [Example 15] | – | Good | Plasma Conversion ([1]; @ 2 hrs): 100% @ 2 hrs
